In patent publication US11603377B2, “MTORC1 modulators and uses thereof” (Aeovian Pharmaceuticals, Inc., priority 2020, dated 2023):

What was measured:
mTORC1 = mTORC1 (Homo sapiens (Human), UniProt P42345+P62942); experiment: mTORC1 inhibition, AlphaLISA of Phospho-p70 S6 kinase (p70S6K pT389) in PC-3 cells; format: cell-based; details: inhibition of p70S6K pT389 levels
mTORC2 = mTORC2 (Homo sapiens (Human), UniProt P42345+P62942); experiment: mTORC2 inhibition, AlphaLISA of Phospho-AKT (pAKT pS473) in PC3 cells; format: cell-based
Protocol: Example 32: mTORC1 Inhibition, mTORC2 Inhibition, Cell Lysis, AlphaLISA Experiments, and Data Analysis
mTORC2 inhibition was determined via analysis of phosphorylation level of Phospho-AKT (pAKT pS473) with the corresponding AlphaLISA kit (PerkinElmer, Alpha SF Ultra™ Multiplex p-AKT1/2/3(Ser473)/Total AKT1). PC3 cells were plated on 96 well plates in assay medium (DMEM: Ham's F12, basic (CLS Cell Lines Service GmbH, Cat #820400a), supplemented with additional 10% FBS at 1.20E+06 cells/mL and incubated over-night at 37° C., 5% CO2. On the following day, cells were treated with assay medium (10% FBS) containing increasing compound concentrations (12 points at 3-fold dilutions) and incubated for 6 hours at 37° C., 5% CO2. Thereafter, medium was aspirated and cells were rinsed with PBS. In the following, cells were treated with compound dilutions in starvation medium (DMEM: Ham's F12, basic; without FBS) for further 18 h at 37° C., 5% CO2. Then, immediately prior to cell lysis, cells were treated with 12% FBS for 15 min.
After performing experiments according to mTORC1 and mTORC2 protocols, cells were harvested in lysis buffer supplied with the AlphaLISA kits, additionally enriched with Roche cOmplete™ Protease Inhibitor Cocktail (Cat #CO-RO). Thus, cells were lysed using 50 μL of the lysis buffer and incubated for 60 min at 4° C. while shaking. After centrifugation at 4000 rpm for 5 min, experiments were performed according to the AlphaLISA manufacturer's protocol.
Ten microliters of cell lysates were mixed with the acceptor mix. After incubation for 2 h at room temperature, the donor mix was added. After additional incubation at room temperature for 2 hours, AlphaLISA signal was read on PHERAstar® FSX (BMG Labtech) with AlphaPLEX module.
EC50 values were calculated by ExcelFit standard algorithm.

[1] = target: FKBP51 / FRB ternary complex (Homo sapiens (Human), UniProt P42345+Q13451); experiment: SPR assay to characterize ternary complex formation with FKBP51 (FRB binding to rapalog-saturated FKBP51); details: FRB dilutions with 100 nM rapalog on immobilized FKBP51
Protocol: Example 31: SPR Assay to Characterize Ternary Complex Formation with FKBP51
(§1) Biotinylated avi-FKBP51 was immobilized on a streptavidin chip (Cytiva Series S SA) using a Biacore 8K or 8 k+ (Cytiva). To achieve an immobilization level of 200 RU, 0.6 μg/ml biotinylated avi-FKBP51 were injected for 150 sec at a flow rate of 10 μl/min. Serial dilution of FRB was prepared (12 concentrations, 3-fold dilutions, 0.00011-20 μM) and supplemented with 100 nM of rapalog. A-B-A injection mode was used to ensure saturation immobilized […] with respective rapalog. 100 nM solution of the respective rapalog was injected before FRB injection for 120 sec and during dissociation for 420 sec. The FRB dilutions were then injected 120 seconds contact time with increasing concentrations. […] 50 mM HEPES pH 7.5, 150 mM NaCl, 2 mM MgCl2, 1 mM DTT, 0.05% Tween-20, 1% DMSO was used as running buffer at a flow rate of 30 μl/min. The multi-cycle kinetics data were fit to a 1:1 binding model to measure the association rate ka (1/Ms), the dissociation rate kd (1/s) and the affinity Kd (M). In case of fast association and dissociation, steady state affinity analysis following the law of mass action was used to determine the affinity Kd (M).

[2] = target: FKBP12 / FRB ternary complex (Homo sapiens (Human), UniProt P42345+P62942); experiment: SPR assay to characterize ternary complex formation with FKBP12 (FRB binding to rapalog-saturated FKBP12); details: FRB dilutions with 100 nM rapalog on immobilized FKBP12
Protocol: Example 30: SPR Assay to Characterize Ternary Complex Formation with FKBP12
as §1, with “Biotinylated avi-FKBP12” for “Biotinylated avi-FKBP51”, “of 100” for “of 200”, “RU, 0.3” for “RU, 0.6”, “biotinylated avi-FKBP12” for “biotinylated avi-FKBP51”, “for 80” for “for 150”

FKBP12 = FKBP12 (Homo sapiens (Human), UniProt P62942); experiment: SPR assay to determine binding affinity to FKBP12 (direct binding); details: immobilized biotinylated avi-FKBP12
Sequence of FKBP12 (P62942 whole entry): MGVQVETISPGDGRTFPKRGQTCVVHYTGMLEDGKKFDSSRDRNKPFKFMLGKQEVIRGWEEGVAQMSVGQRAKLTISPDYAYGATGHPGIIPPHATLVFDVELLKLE
Protocol: SPR Assay to Determine Binding Affinity to FKBP12.
Biotinylated avi-FKBP12 was immobilized on a streptavidin chip (Cytiva Series S SA) using a Biacore 8K or 8 k+ (Cytiva). To achieve an immobilization level of 1000 RU, 2 μg/ml biotinylated avi-FKBP12 were injected for 100 sec at a flow rate of 10 μl/min. Rapalogs were diluted in DMSO to 100× working concentration. Each Rapalog was 100-fold diluted in 50 mM HEPES pH 7.5, 150 mM NaCl, 2 mM MgCl2, 1 mM DTT, 0.05% Tween-20 and a serial dilution prepared (9 concentrations, 3-fold dilutions, 0.08-500 nM). […] The compound dilutions were then injected at 100 uL/min for 120 seconds contact time in sequence with increasing concentrations. Dissociation was monitored for 3600 seconds. 50 mM HEPES pH 7.5, 150 mM NaCl, 2 mM MgCl2, 1 mM DTT, 0.05% Tween-20, 1% DMSO was used as running buffer. The single-cycle kinetics data were fit to a 1:1 binding model to measure the association rate ka (1/Ms), the dissociation rate kd (1/s) and the affinity Kd (M).

FKBP51 = FKBP51 (Homo sapiens (Human), UniProt Q13451); experiment: SPR assay to determine binding affinity to FKBP51 (direct binding); details: immobilized biotinylated avi-FKBP51
Sequence of FKBP51 (Q13451 whole entry): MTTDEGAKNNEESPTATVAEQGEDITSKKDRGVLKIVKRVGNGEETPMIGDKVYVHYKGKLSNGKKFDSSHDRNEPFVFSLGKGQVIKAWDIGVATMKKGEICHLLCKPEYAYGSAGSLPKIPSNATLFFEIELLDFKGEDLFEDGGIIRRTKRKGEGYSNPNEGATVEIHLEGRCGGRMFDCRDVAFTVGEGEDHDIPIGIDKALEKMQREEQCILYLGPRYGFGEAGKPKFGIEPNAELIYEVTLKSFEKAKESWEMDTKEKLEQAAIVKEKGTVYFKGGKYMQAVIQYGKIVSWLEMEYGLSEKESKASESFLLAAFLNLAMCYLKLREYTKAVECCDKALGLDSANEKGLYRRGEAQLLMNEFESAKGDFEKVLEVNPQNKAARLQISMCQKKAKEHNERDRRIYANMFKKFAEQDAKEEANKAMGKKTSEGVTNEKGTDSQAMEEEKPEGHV
Protocol: Example 29: SPR Assay to Determine Binding Affinity to FKBP51
Biotinylated avi-FKBP51 was immobilized on a streptavidin chip (Cytiva Series S SA) using a Biacore 8K or 8 k+ (Cytiva). To achieve an immobilization level of 2000 RU, 3 μg/ml biotinylated avi-FKBP51 were injected for 360 sec at a flow rate of 10 μl/min. Rapalogs were diluted in DMSO to 100× working concentration. Each Rapalog was 100-fold diluted in 50 mM HEPES pH 7.5, 150 mM NaCl, 2 mM MgCl2, 1 mM DTT, 0.05% Tween-20 and a serial dilution prepared (8 concentrations, 3-fold dilutions, 0.5-1000 nM). […] The compound dilutions were then injected at 100 uL/min for 120 seconds contact time and with 3600 seconds dissociation time with increasing concentrations. 50 mM HEPES pH 7.5, 150 mM NaCl, 2 mM MgCl2, 1 mM DTT, 0.05% Tween-20, 1% DMSO was used as running buffer. Multi-cycle kinetics data were fit to a 1:1 binding model to measure the association rate ka (1/Ms), the dissociation rate kd (1/s) and the affinity Kd (M).

Compound	IC50 (mTORC1) [µM]	mTORC2 % inhibition at 1 uM (mTORC2)	Kd [1] [µM]	Kd [2] [µM]	Kd (FKBP12) [µM]	Kd (FKBP51) [µM]
COC1CC(CC(C)C2CC(=O)C(C)C=C(C)C(O)C(OC)C(=O)C(C)CC(C)C=CC=CC=C(C)C(OC3CC3)CC3CCC(C)C(O)(O3)C(=O)C(=O)N3CCCCC3C(=O)O2)CCC1OCCCO (stereo not drawn) [Compound 53]	0.0001 to 0.0008	C (C≥40% and less than 60% inhibition at 1 uM)	> 0.8	< 0.3	0.0003 to 0.001	> 0.1
COC1C(=O)C(C)CC/C=C/C=C/C=C(\C)[C@@H](NS(=O)(=O)CCO)C[C@H]2CC[C@H](C)[C@](O)(O2)C(=O)C(=O)N(C)C(C)C(=O)OC([C@H](C)C[C@@H]2CC[C@@H](OC3CC3)[C@H](OC)C2)CC(=O)C(C)/C=C(\C)C1O (stereo partly drawn) [Compound 11]	0.0001 to 0.0008	A (A ≤20% inhibition at 1 micro Molar (uM))	0.3 to 0.8	0.3 to 0.8	0.0003 to 0.001	0.01 to 0.1
COC1CC(CC(C)C2CC(=O)C(C)C=C(C)C(O)C(OC)C(=O)C(C)CC(C)C=CC=CC=C(C)C(OC3CC3)CC3CCC(C)C(O)(O3)C(=O)C(=O)N3CCCCC3C(=O)O2)CCC1OCCO (stereo not drawn) [Compound 46]	0.0001 to 0.0008	B (B>20% and less than 40% inhibition at 1 uM)	0.3 to 0.8	0.3 to 0.8	> 0.001	> 0.1
COC1CC(CC(C)C2CC(=O)C(C)C=C(C)C(O)C(OC)C(=O)C(C)CC(C)C=CC=CC=C(C)C(NS(=O)(=O)C3CC3)CC3CCC(C)C(O)(O3)C(=O)C(=O)N3CCCCC3C(=O)O2)CCC1OCCCO (mixture of isomers) [Compound 15]	0.0001 to 0.0008	A (A ≤20% inhibition at 1 micro Molar (uM))	> 0.8	< 0.3	< 0.0003	0.01 to 0.1
COC1CC(CC(C)C2CC(=O)C(C)C=C(C)C(O)C(OC)C(=O)C(C)CC(C)C=CC=CC=C(C)C(OCC3CCC3)CC3CCC(C)C(O)(O3)C(=O)C(=O)N3CCCCC3C(=O)O2)CCC1O (stereo not drawn) [Compound 36]	0.0001 to 0.0008	B (B>20% and less than 40% inhibition at 1 uM)	> 0.8	0.3 to 0.8	< 0.0003	> 0.1
CO[C@@H]1C[C@H](C[C@@H](C)[C@@H]2CC(=O)[C@H](C)/C=C(\C)[C@@H](O)[C@@H](OC)C(=O)[C@H](C)C[C@H](C)/C=C/C=C/C=C(\C)[C@H](NS(=O)(=O)CC3CCCCC3)C[C@@H]3CC[C@@H](C)[C@@](O)(O3)C(=O)C(=O)N3CCCC[C@H]3C(=O)O2)CC[C@H]1O [Compound 19]	> 0.0008	B (B>20% and less than 40% inhibition at 1 uM)	> 0.8	> 0.8	0.0003 to 0.001	> 0.1
CO[C@@H]1C[C@H](C[C@@H](C)[C@@H]2CC(=O)[C@H](C)/C=C(\C)[C@@H](O)[C@@H](OC)C(=O)[C@H](C)C[C@H](C)/C=C/C=C/C=C(\C)[C@@H](OCCC3CCS(=O)(=O)C3)C[C@@H]3CC[C@@H](C)[C@@](O)(O3)C(=O)C(=O)N3CCCC[C@H]3C(=O)O2)CC[C@H]1O (stereo partly drawn) [Compound 27]	> 0.0008	A (A ≤20% inhibition at 1 micro Molar (uM))	> 0.8	> 0.8	< 0.0003	0.01 to 0.1
CCOC(=O)COC1CCC(CC(C)C2CC(=O)C(C)C=C(C)C(O)C(OC)C(=O)C(C)CC(C)C=CC=CC=C(C)C(OCC3CC3)CC3CCC(C)C(O)(O3)C(=O)C(=O)N3CCCCC3C(=O)O2)CC1OC (stereo not drawn) [Compound 51]	> 0.0008	A (A ≤20% inhibition at 1 micro Molar (uM))	> 0.8	0.3 to 0.8	> 0.001	> 0.1
COC1C[C@H]2CC[C@H](C)[C@](O)(O2)C(=O)C(=O)N(C)C(C)C(=O)OC([C@H](C)C[C@@H]2CC[C@@H](OCCCS(C)(=O)=O)[C@H](OC)C2)CC(=O)C(C)/C=C(\C)C(O)C(OC)C(=O)C(C)CC/C=C/C=C/C=C/1C (stereo partly drawn) [Compound 59]	< 0.0001	D (D≥60% inhibition at 1 uM)	0.3 to 0.8	< 0.3	< 0.0003	0.01 to 0.1
COC1CC(CC(C)C2CC(=O)C(C)C=C(C)C(O)C(OC)C(=O)C(C)CC(C)C=CC=CC=C(C)C(OCC3CCCC3)CC3CCC(C)C(O)(O3)C(=O)C(=O)N3CCCCC3C(=O)O2)CCC1O (stereo not drawn) [Compound 40]	0.0001 to 0.0008	A (A ≤20% inhibition at 1 micro Molar (uM))	> 0.8	0.3 to 0.8	> 0.001	> 0.1
CCOC(=O)COC1CCC(CC(C)C2CC(=O)C(C)C=C(C)C(O)C(OC)C(=O)C(C)CC(C)C=CC=CC=C(C)C(OCC3CC3)CC3CCC(C)C(O)(O3)C(=O)C(=O)N3CCCCC3C(=O)O2)CC1OC (stereo not drawn) [Compound 50]	> 0.0008	B (B>20% and less than 40% inhibition at 1 uM)	> 0.8	0.3 to 0.8	> 0.001	> 0.1
